Patent US7118872B2, “Binding polypeptides for B lymphocyte stimulator protein (BLyS)” (priority 2000, dated 2006)
Positions of bridges follow the written chain, without caps; N, C: chain ends. Residues, ends and D or L forms follow the SMILES beside them. No end group written: not given here.

target: BLyS (Homo sapiens, UniProt Q9Y275); assay: Chromatographic screening of immobilized BLyS binding polypeptides (affinity media); settings: peptide immobilized on SEPHAROSE 4 Fast Flow
Experimental: A reversed phase analytical assay was used in the assessment of the chromatographic performance of the six affinity media.
All columns were tested at 200 μl/min (170 cm/hr) using a Watson/Marlow 101 ru peristaltic pump. This setup allowed free use of numerous wash, protein and elution conditions. Detection was made using a Waters 2487 UV/VIS detector at 214 nm and 280 nm connected to a Waters Millennium workstation.
The columns were then tested with an array of possible elution conditions and monitored at 214 nm and 280 nm for release of BLyS. Fractions indicating possible BLyS elution based on UV absorbance were collected and analyzed by reversed phase chromatography for confirmation.

Sequence of BLyS (Q9Y275 134-285 limits assumed): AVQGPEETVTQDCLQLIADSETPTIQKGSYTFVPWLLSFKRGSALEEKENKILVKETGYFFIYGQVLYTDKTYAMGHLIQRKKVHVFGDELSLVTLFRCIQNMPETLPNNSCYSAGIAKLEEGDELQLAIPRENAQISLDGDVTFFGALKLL

Row | Compound | release of BLyS from affinity media (elution condition)
1 | CSCC[C@@H]1NC(=O)[C@H](Cc2c[nH]cn2)NC(=O)[C@@H](NC(=O)[C@H](CC(C)C)NC(=O)[C@H](CCCNC(=N)N)NC(=O)[C@H](CO)NC(=O)[C@H](CO)NC(=O)CNC(C)=O)CSSC[C@@H](C(=O)N[C@H](C(=O)N[C@@H](Cc2c[nH]cn2)C(=O)N[C@@H](Cc2ccccc2)C(=O)N[C@@H](C)C(=O)N2CCC[C@H]2C(=O)N2CCC[C@H]2C(=O)NCC(=O)N2CCC[C@H]2C(=O)N[C@@H](CCC(=O)O)C(=O)NCC(=O)NCC(=O)NCC(=O)N[C@@H](CCCCN)C(=O)O)C(C)C)NC(=O)[C@H](C(C)C)NC(=O)[C@H](Cc2c[nH]cn2)NC(=O)[C@H]([C@@H](C)O)NC(=O)[C@H](CC(C)C)NC(=O)[C@H](CCC(=O)O)NC(=O)[C@H](CC(=O)O)NC1=O [DX216] (Ac-GSSRLCHMDELTHVCVHFAPPGPEGGGK-OH; disulfide 6-15; C-terminus assumed) | would only release BLyS in the presence of pH 2 buffer
2 | Ac-WTDSLTGLWFPDGGPGPEGGGK [DX221] | would only release BLyS in the presence of pH 2 buffer
3 | Ac-GYDVLTKLYFVPGGPGPEGGGK [DX219] | would only release BLyS in the presence of pH 2 buffer
4 | CC(=O)N[C@@H](C)C(=O)NCC(=O)N[C@H](C(=O)N1CCC[C@H]1C(=O)N[C@@H](Cc1ccccc1)C(=O)N[C@H]1CSSC[C@@H](C(=O)N[C@@H](Cc2ccccc2)C(=O)N[C@@H](CCC(=O)O)C(=O)N[C@@H](C)C(=O)NCC(=O)N2CCC[C@H]2C(=O)NCC(=O)N2CCC[C@H]2C(=O)N[C@@H](CCC(=O)O)C(=O)NCC(=O)NCC(=O)NCC(=O)N[C@@H](CCCCN)C(=O)O)NC(=O)[C@H](Cc2c[nH]cn2)NC(=O)[C@H](CCCCN)NC(=O)[C@H]([C@@H](C)O)NC(=O)[C@H](CC(C)C)NC(=O)[C@H](CC(C)C)NC(=O)[C@H](CC(=O)O)NC1=O)C(C)C [DX214] (Ac-AGVPFCDLLTKHCFEAGPGPEGGGK-OH; disulfide 6-13; C-terminus assumed) | would only release BLyS in the presence of pH 2 buffer
5 | CSCC[C@H](NC(=O)[C@@H]1CSSC[C@H](NC(=O)[C@H](CC(N)=O)NC(=O)CNC(=O)CNC(=O)[C@H](CC(=O)O)NC(=O)CNC(C)=O)C(=O)N[C@@H](Cc2ccc(O)cc2)C(=O)N[C@@H]([C@@H](C)O)C(=O)N[C@@H](CC(=O)O)C(=O)N[C@@H](CO)C(=O)N[C@@H](CC(C)C)C(=O)N[C@@H]([C@@H](C)O)C(=O)N[C@@H](CCCCN)C(=O)N[C@@H](CC(C)C)C(=O)N[C@@H](Cc2c[nH]cn2)C(=O)N[C@@H](Cc2ccccc2)C(=O)N1)C(=O)NCC(=O)N[C@@H](CC(=O)O)C(=O)N[C@@H](CCC(=O)O)C(=O)N1CCC[C@H]1C(=O)NCC(=O)N1CCC[C@H]1C(=O)N[C@@H](CCC(=O)O)C(=O)NCC(=O)NCC(=O)NCC(=O)N[C@@H](CCCCN)C(=O)O [DX217] (Ac-GDGGNCYTDSLTKLHFCMGDEPGPEGGGK-OH; disulfide 6-17; C-terminus assumed) | would only release BLyS in the presence of pH 2 buffer
6 | CC(=O)N[C@@H](C)C(=O)NCC(=O)N[C@@H](CCCCN)C(=O)N[C@@H](CCC(=O)O)C(=O)N1CCC[C@H]1C(=O)N[C@H]1CSSC[C@@H](C(=O)N[C@@H](C)C(=O)N[C@H](C(=O)N[C@@H](CO)C(=O)NCC(=O)N2CCC[C@H]2C(=O)NCC(=O)N2CCC[C@H]2C(=O)N[C@@H](CCC(=O)O)C(=O)NCC(=O)NCC(=O)NCC(=O)N[C@@H](CCCCN)C(=O)O)C(C)C)NC(=O)[C@H](CCC(=O)O)NC(=O)[C@H](Cc2c[nH]c3ccccc23)NC(=O)[C@H](Cc2ccc(O)cc2)NC(=O)[C@H](Cc2ccccc2)NC(=O)[C@H](Cc2ccc(O)cc2)NC1=O [DX212] (Ac-AGKEPCYFYWECAVSGPGPEGGGK-OH; disulfide 6-12; C-terminus assumed) | released BLyS with good recoveries on elution with 50% ethylene glycol, pH 4
